Results on four compounds are retold here after US20230339919A1, “BENZO OXYGEN-CONTAINING HETEROCYCLIC COMPOUNDS AND MEDICAL APPLICATION THEREOF” (AB PHARMA LTD., priority 2020, published 2023).

The target of data set [1] is BSEP bile salt transporter (Homo sapiens, UniProt O95342). The experiment in a line: BSEP (Bile Salt Export Pump) assay, taurocholic acid uptake by BSEP vesicles, LC/MS/MS. The format is in vitro ADME. From the text:
In this experiment, we performed a preliminary study on the inhibition of the uptake of the substrate taurocholic acid (TCA) by the BSEP bile salt transporter by LC/MS/MS. The BSEP protein microvesicles with reverse uptake ability were obtained by transfecting Hi5 cells with the BSEP gene, which is capable of TCA uptake and uptake of taurocholic acid. The principle of this experiment is to perform substrate uptake by BSEP protein microcapsules in the presence of energy ATP, the substrate TCA and the candidate compound to be tested, after a certain transit time, the energy, substrate and candidate compound were completely washed out of the microvesicle, and the absorbed substrate TCA was released by lysis of the microvesicle. […] The starting concentration of the sample was 100 mM, diluted in 2-fold gradient with Bravo apparatus, with 11 concentration gradients; the lowest point concentration was 97.65 μM. • 3. Control compound (Glyburide) starting at 20 mM, diluted in 2-fold gradient with Bravo instrument, with 11 concentration gradients; the lowest point concentration was 19.53 μM. • 4. 300 nl of compound was transferred to the middle plate using the ECHO autosampler. • 5. Positive control (HPE) wells and negative control (ZPE) wells were also transferred 300 nl DMSO each. […] Add 14.7 μl of ATP buffer to the corresponding wells of the compound and ZPE, respectively. • 2. Add 14.7 μl of AMP buffer to the corresponding wells of the HPE. • 3. Shake the plate at 25 degrees C. for 10 minutes. • 4. […] Immediately add 5 ul of 0.5M EDTA solution to all wells, and then add 65 μl of Buffer B. All reactions are completed. • 6. Transfer […] of liquid from the end of reaction compound plate to the filter plate using the spiking apparatus. • 7. After placing the liquid receiving plate under the filter plate, use a centrifuge to remove the liquid and discard the liquid received in the receiving plate. • 8. Add 90 μl of buffer B to the filter plate and repeat step 7. Repeat steps 7 and 8 to wash the filter plate a total of three times. • 9. Let the filter plate dry overnight. • 10. Add 81 μl of 80% methanol/water solution to the filter plate the next day. • 11. Apply membrane to the filter plate and vibrate the plate for 15 minutes. • 12. Place a new liquid receiver plate under the filter plate and centrifuge for 5 min to filter all the liquid from the filter plate into the receiver plate. • 13. Add 13.5 μl of internal standard solution to each well of the liquid receiver plate and seal the plate with a sealing film. • 14. Using LC/MS/MS, detect the content of taurocholic acid in the receiver plate.

A short description of data set [2]: Acute Toxicity Study (MTD) by gavage in healthy mice. Format: in vivo. Particulars: mouse, in vivo, po.
In data set [3] the test system is healthy mice. Described as above. Format: in vivo. The conditions noted are these: for survival rate of the mice after administration: 5 days.
The target of data set [4] is hERG (Homo sapiens, UniProt Q12809). As to the kind of experiment: hERG assay. (hERG is a cardiac potassium channel; its block is linked to QT prolongation.)
In data set [5] the target is T1, GPR40 (Homo sapiens, UniProt O14842).
T1 construct: expressed in transfected cells; host or cells: CHO-K1
As to the kind of experiment: GPR40 agonist activity, FLIPR calcium assay in CHO-K1/GPR40 cells. The format is cell-based. On the procedure: Inoculate CHO-K1/GPR40 cells in 384-well plates at a density of 10,000 cells/well. Cells were incubated at 37° C. for 24 hours in a 5% CO2 incubator. After the experiment, discard the cell culture medium, quickly add […] of 1× FLIPR® Calcium 6 dye containing 2.5 mM/Probenecid to each well and incubate at 37° C. for 2 hours protected from light. For the determination, different concentrations of drug ([…]) were added to the wells and the fluorescence values were read. The fluorescence excitation wavelength was 494 nm and emission wavelength was 516 nm. FLIPR instrument data, EC50 was derived from the formula Y=Bottom+(Top−Bottom)/(1+(EC50/X)^HillSlope).

Data set [6] is described as follows: Ames assay.
The conditions of data set [7]: cited from earlier work.
The mark [8] stands for this setting: inhibition of TCA uptake by BSEP vesicles, read-out: Potential inhibitory side effects BSEP (IC50).
The mark [9] stands for this setting: GPR40 agonist activity range (EC50), CHO-K1/GPR40 cells, read-out: GPR40 activity.
Setting [10] is: Table 4, read-out: GPR40 Activity (hEC50).
The mark [11] stands for this setting: read-out: GPR40 activity (EC50).

pEC50, pIC50: −log10 of the molar value. “Also recorded” adds a separate entry of the source. Where two headings read alike, the source gives them in different places.

T1 sequence (O14842 whole entry): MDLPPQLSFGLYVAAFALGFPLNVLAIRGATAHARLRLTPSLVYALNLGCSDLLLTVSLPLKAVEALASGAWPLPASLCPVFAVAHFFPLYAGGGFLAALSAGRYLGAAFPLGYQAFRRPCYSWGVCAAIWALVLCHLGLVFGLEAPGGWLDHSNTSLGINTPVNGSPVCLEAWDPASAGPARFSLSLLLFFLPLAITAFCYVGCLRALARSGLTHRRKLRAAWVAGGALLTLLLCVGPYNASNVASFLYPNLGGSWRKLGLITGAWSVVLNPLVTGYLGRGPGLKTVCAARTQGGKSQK
hERG, sequence (Q12809 whole entry): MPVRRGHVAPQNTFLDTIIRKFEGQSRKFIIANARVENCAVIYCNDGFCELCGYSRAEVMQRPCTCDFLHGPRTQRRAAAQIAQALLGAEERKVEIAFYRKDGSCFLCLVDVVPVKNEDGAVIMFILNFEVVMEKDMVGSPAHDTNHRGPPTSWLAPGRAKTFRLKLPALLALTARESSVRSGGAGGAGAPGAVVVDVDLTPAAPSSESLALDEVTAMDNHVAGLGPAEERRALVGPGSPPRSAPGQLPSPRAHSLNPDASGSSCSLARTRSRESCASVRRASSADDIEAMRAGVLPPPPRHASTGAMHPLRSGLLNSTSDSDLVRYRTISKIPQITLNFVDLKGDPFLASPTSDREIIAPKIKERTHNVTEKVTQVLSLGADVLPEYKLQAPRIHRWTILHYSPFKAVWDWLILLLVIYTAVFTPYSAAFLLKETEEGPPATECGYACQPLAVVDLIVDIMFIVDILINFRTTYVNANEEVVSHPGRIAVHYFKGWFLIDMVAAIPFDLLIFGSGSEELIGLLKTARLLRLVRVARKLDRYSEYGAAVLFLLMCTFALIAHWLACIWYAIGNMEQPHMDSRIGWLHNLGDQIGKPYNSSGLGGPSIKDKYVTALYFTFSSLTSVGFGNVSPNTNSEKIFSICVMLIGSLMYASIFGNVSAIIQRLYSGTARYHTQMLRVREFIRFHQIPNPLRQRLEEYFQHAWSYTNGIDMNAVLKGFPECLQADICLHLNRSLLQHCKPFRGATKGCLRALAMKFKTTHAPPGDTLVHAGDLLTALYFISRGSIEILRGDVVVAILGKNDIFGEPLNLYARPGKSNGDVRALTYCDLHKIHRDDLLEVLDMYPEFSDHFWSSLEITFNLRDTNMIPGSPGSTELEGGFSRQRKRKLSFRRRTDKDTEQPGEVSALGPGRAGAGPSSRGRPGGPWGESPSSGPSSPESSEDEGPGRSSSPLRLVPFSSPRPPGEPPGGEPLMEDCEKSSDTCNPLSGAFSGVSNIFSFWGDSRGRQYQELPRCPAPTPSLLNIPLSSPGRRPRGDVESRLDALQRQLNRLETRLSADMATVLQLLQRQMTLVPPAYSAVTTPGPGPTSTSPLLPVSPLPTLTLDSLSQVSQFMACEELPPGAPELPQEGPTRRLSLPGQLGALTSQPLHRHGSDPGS
BSEP bile salt transporter, sequence (O95342 whole entry): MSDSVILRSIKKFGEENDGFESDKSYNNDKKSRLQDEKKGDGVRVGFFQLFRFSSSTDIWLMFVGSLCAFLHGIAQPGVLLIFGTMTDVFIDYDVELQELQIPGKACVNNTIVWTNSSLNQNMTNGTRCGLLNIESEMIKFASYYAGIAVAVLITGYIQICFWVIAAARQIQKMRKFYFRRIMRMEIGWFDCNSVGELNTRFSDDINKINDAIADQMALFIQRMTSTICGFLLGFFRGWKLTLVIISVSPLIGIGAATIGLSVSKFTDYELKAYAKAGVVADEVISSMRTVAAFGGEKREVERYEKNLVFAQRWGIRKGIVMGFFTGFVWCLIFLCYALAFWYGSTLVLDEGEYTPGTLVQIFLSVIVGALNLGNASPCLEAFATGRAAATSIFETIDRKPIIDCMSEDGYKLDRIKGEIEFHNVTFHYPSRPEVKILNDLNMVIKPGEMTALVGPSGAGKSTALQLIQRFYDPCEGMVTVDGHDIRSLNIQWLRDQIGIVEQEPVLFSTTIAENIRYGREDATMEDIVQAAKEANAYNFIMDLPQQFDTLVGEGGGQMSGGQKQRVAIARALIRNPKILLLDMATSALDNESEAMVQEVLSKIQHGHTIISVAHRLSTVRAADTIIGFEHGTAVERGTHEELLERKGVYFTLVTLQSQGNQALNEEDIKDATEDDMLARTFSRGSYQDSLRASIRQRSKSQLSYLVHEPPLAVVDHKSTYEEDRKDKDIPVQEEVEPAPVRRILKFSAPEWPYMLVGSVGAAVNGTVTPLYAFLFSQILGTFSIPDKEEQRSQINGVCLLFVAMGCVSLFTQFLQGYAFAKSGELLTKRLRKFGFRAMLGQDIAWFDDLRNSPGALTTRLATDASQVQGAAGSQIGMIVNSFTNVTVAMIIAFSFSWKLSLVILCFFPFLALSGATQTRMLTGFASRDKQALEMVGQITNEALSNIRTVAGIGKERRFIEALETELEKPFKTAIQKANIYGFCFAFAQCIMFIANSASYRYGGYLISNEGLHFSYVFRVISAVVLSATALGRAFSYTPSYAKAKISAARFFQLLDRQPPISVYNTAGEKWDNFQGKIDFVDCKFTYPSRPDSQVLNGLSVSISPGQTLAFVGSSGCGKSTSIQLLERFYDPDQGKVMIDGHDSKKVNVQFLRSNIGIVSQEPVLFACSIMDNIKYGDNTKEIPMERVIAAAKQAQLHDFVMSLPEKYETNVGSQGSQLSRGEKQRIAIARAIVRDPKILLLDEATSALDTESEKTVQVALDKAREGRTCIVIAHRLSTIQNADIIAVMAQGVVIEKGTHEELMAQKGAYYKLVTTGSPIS

As to `O=C(O)C[C@@H]1COc2cc(OCc3cccc4c3OC(F)(F)O4)ccc21` [IIb-18], the results for the pIC50 in data set [1] (setting [8]), in data set [1] (read-out: BSEP) and in data set [4] were 3.79, below 4.60 and below 4.52, respectively. In data set [2] (600 mg/kg), the LD50 at 5 days is above 600 mg/kg. In addition, the “survival rate of the mice after administration” value (“survival rate of the mice” for short) in data set [3] (mouse, in vivo, 600 mg/kg) is recorded as 100%. Also, the pEC50 in data set [5] (setting [9]) is above 8.00; in data set [5] (setting [10]), 8.10; in data set [5] (setting [11]), above 8.00. For the same compound, the Ames assay result in data set [6] is “no relevant side effects”.
As to `O=C(O)C[C@@H]1COc2cc(OCc3cc(Cl)cc4c3OCO4)ccc21` [IIb-25], the pIC50 in data set [1] (setting [8]) is 4.24; in data set [1] (read-out: BSEP) it was below 4.60; in data set [4], below 4.52. In data set [2] (600 mg/kg), this compound had an LD50 at 5 days above 600 mg/kg. In data set [3] (mouse, in vivo, 600 mg/kg), the “survival rate of the mice” value turned out to be 100%. Besides, the pEC50 was above 8.00 in data set [5] (setting [9]), 8.04 in data set [5] (setting [10]) and above 8.00 in data set [5] (setting [11]). Also, in data set [6], the Ames assay result is recorded as “no relevant side effects”.
Take `CC(C)(C)OC(=O)Nc1cc(COc2ccc3c(c2)OC[C@H]3CC(=O)O)c2c(c1)OCO2` [IIb-43]: the pIC50 is 4.18 in data set [1] (setting [8]), below 4.60 in data set [1] (read-out: BSEP) and below 4.52 in data set [4]. Further, the LD50 at 5 days in data set [2] (mice, 600 mg/kg by gavage, 5 consecutive days, read-out: LD50) is above 600 mg/kg. Moreover, the “overall / acute toxicity” value in data set [3] (MTD high dose 600 mg/kg/day, mice, 600 mg/kg/day) is “low and very low”. Also, the “abnormalities in body weight and external and internal observations” value in data set [3] (during the dosing and 5-day recovery period, 600 mg/kg) is on record as “no abnormalities”. In addition, the “autopsy results (heart, liver, lung, kidney, intestine)” value in data set [3] (mice, 600 mg/kg) was “did not reveal any abnormal changes; also recorded: did not reveal any abnormalities”. For the same compound, the “survival rate of the mice” value in data set [3] (mice, 600 mg/kg by gavage) was found to be 100%. The results for the pEC50 in data set [5] (setting [9]), in data set [5] (setting [10]) and in data set [5] (setting [11]) were above 8.00, 8.17 and above 8.00, respectively. Moreover, the Ames assay result in data set [6] is reported as “no relevant side effects”.
On to `Cc1cc(OCCCS(C)(=O)=O)cc(C)c1-c1cccc(COc2ccc3c(c2)OC[C@H]3CC(=O)O)c1` [Ref-1], for which the pIC50 in data set [1] (setting [8]) was 5.15. In addition, the “risk of causing hypoglycaemia” value in data set [7] (50 mg once daily, versus control sulphonylureas) was “significantly lower than that of the control sulphonylureas”. Besides, the hepatotoxicity result in data set [7] (clinical studies terminated in 2013) is “problems with hepatotoxicity”. Further, the “effect on insulin secretion” value in data set [7] (when blood glucose levels are normal) is on record as “no effect”.

By LD50 is commonly meant the dose expected to kill half of the subjects tested.
